Consider nine molecules from publication PMC8999638, “Identification of Entry Inhibitors against Delta and Omicron Variants of SARS-CoV-2” (International Journal of Molecular Sciences, 2022).

SMILES strings stand for the structures. Where a name gives a salt, the structure may show the parent alone.

In assay [1] the test system is NanoBiT. Nature of the assay: Negative screening HiBiT assay (NanoBiT activity). It counts as cell-based. The settings on record: for Negative Screening HiBiT Assay % Inhibition (20 μM): 20 μM drug; for Negative Screening HiBiT Assay % Inhibition (100 μM): 100 μM drug; for Negative Screening HiBiT Assay INHIBIT NanoBiT: >70% inhibition in 100 μM, then including >35% inhibition at 20 μM. (With HiBiT, luminescence reflects the tagged protein that the partner subunit can reach.)

In assay [2] the target is RBD-ACE2 attachment (RBD of viral spike protein and ACE2 receptor) (Severe acute respiratory syndrome coronavirus 2, UniProt P0DTC2). Nature of the assay: cell-based. To be noted: for inhibition at 20 µM / inhibition at 100 µM: HeLa; for inhibition at 20 µM: read-out: Positive Screening RBD Attachment Assay % Inhibition (20 μM); for inhibition at 100 µM: read-out: Positive Screening RBD Attachment Assay % Inhibition (100 μM). On the set-up: species or system SARS-CoV-2; human.

Take `CN(C)c1ccc(C(=C2C=CC(=[N+](C)C)C=C2)c2ccc(N(C)C)cc2)cc1` [Crystal Violet]: in assay [1], the “Negative Screening HiBiT Assay % Inhibition (20 μM)” value was found to be 17%, the “Negative Screening HiBiT Assay % Inhibition (100 μM)” value is on record as 86% and the “Negative Screening HiBiT Assay INHIBIT NanoBiT” value is recorded as “Yes”. In assay [2], the “Positive Screening RBD Attachment Assay Dose Response” value is reported as “Yes”, the inhibition at 20 µM stood at 73% and the inhibition at 100 µM turned out to be 99%.
Regarding `CCOC(=O)C1=C(C)NC(C)=C(C(=O)OC)C1c1cccc(Cl)c1Cl` (stereo not drawn) [Felodipine], in assay [1], the “Negative Screening HiBiT Assay % Inhibition (20 μM)” value was found to be 88%, the “Negative Screening HiBiT Assay % Inhibition (100 μM)” value came out at 99% and the “Negative Screening HiBiT Assay INHIBIT NanoBiT” value is on record as “Yes”. For the same molecule, in assay [2], the “Positive Screening RBD Attachment Assay Dose Response” value was “Yes”, the inhibition at 20 µM came out at 63% and the inhibition at 100 µM stood at 96%.
Consider `CCCCc1oc2ccc(NS(C)(=O)=O)cc2c1C(=O)c1ccc(OCCCN(CCCC)CCCC)cc1` [Dronedarone hydrochloride], for which, in assay [1], the “Negative Screening HiBiT Assay % Inhibition (20 μM)” value came out at 21%, the “Negative Screening HiBiT Assay % Inhibition (100 μM)” value is reported as 86% and the “Negative Screening HiBiT Assay INHIBIT NanoBiT” value was “Yes”. Moreover, in assay [2], the “Positive Screening RBD Attachment Assay Dose Response” value is listed as “Yes”, the inhibition at 20 µM came to 41% and the inhibition at 100 µM was 93%.
In the case of `O=C1C(O)=C([C@H]2CC[C@H](c3ccc(Cl)cc3)CC2)C(=O)c2ccccc21` [Atovaquone], in assay [1], the “Negative Screening HiBiT Assay % Inhibition (20 μM)” value is listed as 54%, the “Negative Screening HiBiT Assay % Inhibition (100 μM)” value came to 96% and the “Negative Screening HiBiT Assay INHIBIT NanoBiT” value is on record as “Yes”. Moreover, in assay [2], the “Positive Screening RBD Attachment Assay Dose Response” value is “Yes”, the inhibition at 20 µM was determined as 39% and the inhibition at 100 µM turned out to be 95%.
For `CC(C)(C)c1nc(-c2cccc(NS(=O)(=O)c3c(F)cccc3F)c2F)c(-c2ccnc(N)n2)s1` [Dabrafenib (GSK2118436), Dabrafenib], in assay [1], the “Negative Screening HiBiT Assay % Inhibition (20 μM)” value is recorded as 88%, the “Negative Screening HiBiT Assay % Inhibition (100 μM)” value stood at 97% and the “Negative Screening HiBiT Assay INHIBIT NanoBiT” value is “Yes”. Besides, in assay [2], the “Positive Screening RBD Attachment Assay Dose Response” value is “Yes”, the inhibition at 20 µM was found to be 85% and the inhibition at 100 µM stood at 96%.
Turning to `CC(=O)Oc1ccccc1C(=O)Nc1ncc([N+](=O)[O-])s1` [Nitazoxanide], in assay [1], the “Negative Screening HiBiT Assay % Inhibition (20 μM)” value worked out at 77%, the “Negative Screening HiBiT Assay % Inhibition (100 μM)” value is 95% and the “Negative Screening HiBiT Assay INHIBIT NanoBiT” value is given as “Yes”. In assay [2], the “Positive Screening RBD Attachment Assay Dose Response” value is on record as “Yes”, the inhibition at 20 µM is 69% and the inhibition at 100 µM turned out to be 93%.
In the case of `CCCCCCCCCCCCCCCC[N+](C)(C)CCN(Cc1ccc(OC)cc1)c1ncccn1` [Thonzonium Bromide], in assay [1], the “Negative Screening HiBiT Assay % Inhibition (20 μM)” value amounted to 36%, the “Negative Screening HiBiT Assay % Inhibition (100 μM)” value is reported as 52% and the “Negative Screening HiBiT Assay INHIBIT NanoBiT” value was “Yes”. Besides, in assay [2], the “Positive Screening RBD Attachment Assay Dose Response” value is “Yes”, the inhibition at 20 µM was 93% and the inhibition at 100 µM amounted to 99%.
`COCCOC(=O)C1=C(C)NC(C)=C(C(=O)OC(C)C)C1c1cccc([N+](=O)[O-])c1` (stereo not drawn) [Nimodipine]: in assay [1], the “Negative Screening HiBiT Assay % Inhibition (20 μM)” value is reported as 79%, the “Negative Screening HiBiT Assay % Inhibition (100 μM)” value is 97% and the “Negative Screening HiBiT Assay INHIBIT NanoBiT” value is “Yes”. In assay [2], the “Positive Screening RBD Attachment Assay Dose Response” value is “Yes”, the inhibition at 20 µM is 64% and the inhibition at 100 µM turned out to be 96%.
On to `CCCC(=O)OCOC(=O)C1=C(C)NC(C)=C(C(=O)OC)C1c1cccc(Cl)c1Cl` (stereo not drawn) [Clevidipine butyrate], for which, in assay [1], the “Negative Screening HiBiT Assay % Inhibition (20 μM)” value came out at 79%, the “Negative Screening HiBiT Assay % Inhibition (100 μM)” value is on record as 93% and the “Negative Screening HiBiT Assay INHIBIT NanoBiT” value was “Yes”. In addition, in assay [2], the “Positive Screening RBD Attachment Assay % Inhibition (20 μM)” value was determined as 69%, the “Positive Screening RBD Attachment Assay % Inhibition (100 μM)” value was determined as 93% and the “Positive Screening RBD Attachment Assay Dose Response” value was “Yes”.

The inhibition is how much of the control response was suppressed.
